What was measured:
[1] = target: recombinant human (RH) DPP1 (Homo sapiens (Human), UniProt P53634); test: Test A1: Fluorescence Assay for Recombinant Human (RH) DPP1; type: biochemical; details: Test A1 (Examples 1-35); rhDPP1 ~50 pM, 100 µM H-Gly-Arg-AMC, 22° C.
Procedure: Test A1: Fluorescence Assay for Recombinant Human (RH) DPP1
The activity of DPP1 was determined by measuring the enzymatic release of aminomethyl coumarin (AMC) from the peptide substrate (H-Gly-Arg-AMC), which leads to an increase in fluorescence intensity at λex =350 nm and λem =450 nm. The assay was carried out in black 384 well plates in a final volume of 50 µl at 22° C. The assay conditions contained the following: 25 mM piperazine buffer pH 5.0; 50 mM NaCl, 5 mM DTT; 0.01% (v/v) Triton X-100; 100 µMH-Gly-Arg-AMC and rhDPP1 (~50 pM). […] Routinely, inhibitors were pre-incubated with rhDPP1 for 30-60 min prior to the addition of the peptide substrate to start the reaction for a further 60 min at 22° C.

[2] = rat quantitative whole-body autoradiography (QWBA) studies; type: in vivo
[3] = Test B: In-vitro Competitive Aortic Tissue Binding Assay; parameters: species or system Han Wistar rats; details: 100 µM compound, competition with [14C]-labelled WO2010/128324 Ex. 3, categories strong binder, medium binder, no binder
Procedure: To assist the design of DPP1 inhibitors with a decreased risk of binding to elastin rich tissues, such as the aorta, the in-vitro competitive aortic binding assay disclosed below (Test B) was developed to facilitate the selection process.
Test B: In-vitro Competitive Aortic Tissue Binding Assay
Aortic homogenate was prepared from the thoracic aortae of Han Wistar rats. Freshly isolated thoracic aortae were frozen, and later thawed and stripped of non-elastic material. […] Homogenate concentration was adjusted to 30 mg/mL in Puck’s saline, and aliquots were stored at -80° C. until use. Positive and negative control compounds and test compounds were made up to 100 mM in DMSO, and added to 1 mL aliquots of aortic homogenate in Puck’s saline for a final concentration of 100 µM. Homogenate samples were pre-incubated with test compounds at 37° C., rotating, overnight. [^14C]4-Amino-N-[(1S)-1-cyano-2-(4′-cyanobiphenyl-4-yl)ethyl]tetrahydro-2H-pyran-4-carboxamide was then added to all samples to a final concentration of 100 µM, and samples were incubated at 37° C., rotating, for a further 2 h. Protein was precipitated from each sample by the addition of 10 mL acetone, prechilled to -20° C. Samples were left overnight at -20° C. to allow complete precipitation. […] Precipitate was washed by resuspension in 10 mL 80% methanol in distilled water, and re-pelleted by centrifugation at 4,500 × g at 4° C. for 20 min. […] After final wash, precipitate was air-dried, and dissolved overnight in 1 mL NCSII Tissue Solubiliser. 1 mL aliquots of supernatants were added to 5 mL Ultima Gold scintillation fluid (Perkin Elmer, MA, U.S.A.), and 1 mL solubilised pellets were added to 5 mL Hionic-Fluor scintillation fluid (Perkin Elmer, MA, U.S.A.). Radioactivity of samples was determined on a Beckman LS6500 multipurpose scintillation counter (Beckman Coulter, IN, U.S.A.). […] Duplicate samples were tested for each compound on each experimental occasion, and at least two experiments were run for each test compound. […] 1-way ANOVA and Bonferroni’s multiple comparison tests were performed to calculate significance of differences from vehicle control.

[4] = QWBA studies, literature (Schmidt et al. 1984); cited from earlier work

Sequence of recombinant human (RH) DPP1 (P53634 231-394): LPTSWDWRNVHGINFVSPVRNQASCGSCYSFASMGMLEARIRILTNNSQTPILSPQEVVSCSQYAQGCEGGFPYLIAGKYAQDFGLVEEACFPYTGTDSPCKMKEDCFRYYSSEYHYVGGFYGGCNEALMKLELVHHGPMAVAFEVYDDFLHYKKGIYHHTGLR
Sequence of recombinant human (RH) DPP1 (P53634 25-143): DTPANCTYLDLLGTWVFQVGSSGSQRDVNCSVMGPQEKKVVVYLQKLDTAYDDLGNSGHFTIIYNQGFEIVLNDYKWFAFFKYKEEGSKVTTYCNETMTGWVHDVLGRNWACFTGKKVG
Sequence of recombinant human (RH) DPP1 (P53634 395-463): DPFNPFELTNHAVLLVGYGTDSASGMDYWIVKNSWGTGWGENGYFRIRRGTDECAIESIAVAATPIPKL

| Structure (SMILES) | DPP1 activity, pIC50 [1] | Aortic Tissue Binding [3] | further results |
| --- | --- | --- | --- |
| Cc1cc(-c2ccc(C[C@@H](C#N)NC(=O)[C@@H]3CNCCCO3)cc2)cc2c1oc(=O)n2C [Example 3, (2S)-N-{(1S)-1-Cyano-2-[4-(3,7-dimethyl-2-oxo-2,3-dihydro-1,3-benzoxazol-5-yl)phenyl]ethyl}-1,4-oxazepane-2-carboxamide] | 7.99 | – | – |
| N#Cc1ccc(-c2ccc(C[C@@H](C#N)NC(=O)[C@@H]3CNCCCO3)cc2)cc1 [Example 1, (2S)-N-[(1S)-1-Cyano-2-(4′-cyanobiphenyl-4-yl)ethyl]-1,4-oxazepane-2-carboxamide] | 7.45 | – | – |
| N#Cc1ccc(-c2ccc(C[C@@H](C#N)NC(=O)C3(N)CCOCC3)cc2)cc1 [WO2010/128324 (Ex. 3), 4-amino-N-[(1S)-1-cyano-2-(4′-cyanobiphenyl-4-yl)ethyl]tetrahydro-2H-pyran-4-carboxamide] | – | Strong binder (reference) | aortic retention [2]: high level of aortic retention |
| CC(c1ccc(Cl)c(Cl)c1)N1N=C(N)CC1=O (stereo not shown) [muzolimine] | – | – | retention in the aorta [4]: retained selectively in the aorta |
| Cn1c(=O)oc2ccc(-c3ccc(C[C@@H](C#N)NC(=O)[C@@H]4CCCCN4)cc3)cc21 [WO2009/074829 (Example 96)] | – | Medium binder | – |
| Cn1c(=O)oc2ccc(-c3ccc(C[C@@H](C#N)NC(=O)[C@@H]4CNCCCO4)cc3)cc21 [Example 2, (2S)-N-{(1S)-1-cyano-2-[4-(3-methyl-2-oxo-2,3-dihydro-1,3-benzoxazol-5-yl)phenyl]ethyl}-1,4-oxazepane-2-carboxamide] | – | No binder | – |
| N#Cc1ccc(-c2ccc(C[C@@H](C#N)NC(=O)[C@@H]3CCCCN3)cc2)cc1 [WO2009/074829 (Example 24)] | – | Binder | – |
| CS(=O)(=O)Oc1cccc(-c2ccc(C[C@@H](C#N)NC(=O)[C@@H]3CNCCCO3)cc2)c1 [Example 4, 4′-[(2S)-2-Cyano-2-{[(2S)-1,4-oxazepan-2-ylcarbonyl] Amino}ethyl] Biphenyl-3-yl methanesulfonate] | 7.1 | – | – |
| Cn1c(=O)oc2ccc(-c3ccc(C[C@@H](C#N)NC(=O)C4(N)CCOCC4)cc3)cc21 [WO2010/128324 (Example 17)] | – | Strong binder | – |

Reference: patent US20230278969A1, “CERTAIN (2S)-N-[(1S)-1-CYANO-2-PHENYLETHYL]-1,4-OXAZEPANE-2-CARBOXAMIDES AS DIPEPTIDYL PEPTIDASE 1 INHIBITORS” (AstraZeneca AB, priority 2014, published 2023)
